# Source: patent publication EP4737442A1, “DIAMINOVINYLIDENE DERIVATIVE OR SALT THEREOF, PEST CONTROL AGENT CONTAINING SAID COMPOUND, AND METHODS FOR USING THESE” (ADEKA CORPORATION, priority 2023, dated 2025)
# Tests used:
# [1] = system: Plutella xylostella; assay: Insecticidal test against Plutella xylostella; details: in Brassica rapa, 144 h, read-out: corrected mortality (%), assessment
# Text: Six days after the immersion in the drug solution, the number of surviving insects was examined.
# [2] = system: Dirofilaria immitis; assay: Effect test on Dirofilaria immitis (larval motility inhibition); details: 168 h, read-out: motility inhibition rate
Compound,mortality at 500 µg/mL [1] [%],inhibition at 100 µM [2] [%]
O=C1CC(c2ccc(C(F)(F)F)cc2)CC(=O)C1=C(Nc1ccc(F)cn1)Nc1ccc(F)cn1 (centres unmarked) [1-1],100,≥ 50
O=C1CC(c2ccc(Cl)s2)CC(=O)C1=C(Nc1ccc(F)cn1)Nc1ccc(F)cn1 (centres unmarked) [1-2],–,≥ 50
O=C1CC(c2ccc(C(F)(F)F)cc2)CC(=O)C1=C(Nc1ccc(F)nc1)Nc1ccc(F)nc1 (centres unmarked) [1-3],–,≥ 50
O=C1CC(c2ccc(C(F)(F)F)cc2)CC(=O)C1=C(Nc1ccnc(F)c1)Nc1ccnc(F)c1 (centres unmarked) [1-4],–,≥ 50
O=C1CC(c2ccc(Br)cn2)CC(=O)C1=C(Nc1ccc(F)cn1)Nc1ccc(F)cn1 (centres unmarked) [1-5],–,≥ 50
O=C1CC(c2ccc(Br)cn2)CC(=O)C1=C(Nc1ccc(F)nc1)Nc1ccc(F)nc1 (centres unmarked) [1-6],–,≥ 50
O=C1CC(c2ccc(Br)cn2)CC(=O)C1=C(Nc1ccnc(F)c1)Nc1ccnc(F)c1 (centres unmarked) [1-7],–,≥ 50
O=C1CC(c2ccc(C(F)(F)F)nc2)CC(=O)C1=C(Nc1ccc(F)nc1)Nc1ccc(F)nc1 (centres unmarked) [1-8],–,≥ 50
CNC(Nc1ccc(F)cc1)=C1C(=O)CC(c2ccc(Br)cn2)CC1=O (centres unmarked) [1-10],100,≥ 50
CNC(NC)=C1C(=O)CC(c2ccco2)CC1=O (centres unmarked) [1-11],–,≥ 50
O=C1CC(c2ccc(C(F)(F)F)cc2)CC(=O)C1=C(NCc1ccc(OC(F)(F)F)cc1)Nc1ccc(F)cc1 (centres unmarked) [1-14],–,≥ 50
Cc1cc(NC(Nc2ccc(F)cc2)=C2C(=O)CC(c3ccc(C(F)(F)F)cc3)CC2=O)no1 (centres unmarked) [1-15],–,≥ 50
O=C1CC(c2ccc(C(F)(F)F)cc2)CC(=O)C1=C(NCc1ccccn1)Nc1ccc(F)cc1 (centres unmarked) [1-19],–,≥ 50
O=C1CC(c2ccc(C(F)(F)F)cc2)CC(=O)C1=C(NCC(F)(F)F)Nc1ccc(F)cc1 (centres unmarked) [1-23],100,≥ 50
COCCNC(Nc1ccc(F)cc1)=C1C(=O)CC(c2ccc(C(F)(F)F)cc2)CC1=O (centres unmarked) [1-25],–,≥ 50
O=C1CC(c2ccc(C(F)(F)F)cc2)CC(=O)C1=C(NCCBr)Nc1ccc(F)cc1 (centres unmarked) [1-27],–,≥ 50
O=C1CC(c2ccc(C(F)(F)F)cc2)CC(=O)C1=C(NCC(F)(F)F)NCC(F)(F)F (centres unmarked) [1-28],100,≥ 50
COCCNC(NCCOC)=C1C(=O)CC(c2ccc(C(F)(F)F)cc2)CC1=O (centres unmarked) [1-29],–,≥ 50
O=C1CC(c2ccc(C(F)(F)F)cc2)CC(=O)C1=C(NCc1ccc(F)cc1)Nc1ccc(F)cc1 (centres unmarked) [1-34],–,≥ 50
O=C1CC(c2ccc(C(F)(F)F)cc2)CC(=O)C1=C(Nc1ccc(F)cc1)NC1CC1 (centres unmarked) [1-36],–,≥ 50
CC(C)(C)ONC(Nc1ccc(F)cc1)=C1C(=O)CC(c2ccc(C(F)(F)F)cc2)CC1=O (centres unmarked) [1-38],100,≥ 50
CN(C)CCNC(NCCN(C)C)=C1C(=O)CC(c2ccc(C(F)(F)F)cc2)CC1=O (centres unmarked) [1-42],–,≥ 50
CC1(C)C(=O)C(=C(Nc2ccc(F)cc2)Nc2ccc(F)cc2)C(=O)CC1c1ccc(Br)cn1 (centres unmarked) [1-44],100,≥ 50
CC1(C)C(=O)C(=C(Nc2ccc(F)cn2)Nc2ccc(F)cn2)C(=O)CC1c1ccc(Br)cn1 (centres unmarked) [1-45],100,≥ 50

Compound,mortality at 500 µg/mL [1] [%],inhibition at 100 µM [2] [%]
CC1(C)C(=O)C(=C(Nc2ccc(F)nc2)Nc2ccc(F)nc2)C(=O)CC1c1ccc(Br)cn1 (centres unmarked) [1-46],–,≥ 50
CC1(C)C(=O)C(=C(Nc2ccnc(F)c2)Nc2ccnc(F)c2)C(=O)CC1c1ccc(Br)cn1 (centres unmarked) [1-47],–,≥ 50
O=C1CC(c2ccc(Cl)s2)CC(=O)C1=C(Nc1ccc(F)nc1)Nc1ccc(F)nc1 (centres unmarked) [1-49],–,≥ 50
O=C1CCC(CC(F)(F)F)C(=O)C1=C(Nc1ccc(F)nc1)Nc1ccc(F)nc1 (centres unmarked) [1-52],–,≥ 50
O=C1CCC(CC(F)(F)F)C(=O)C1=C(Nc1ccc(F)cc1)Nc1ccc(F)nc1 (centres unmarked) [1-54],–,≥ 50
CNC(Nc1ccc(F)nc1)=C1C(=O)CC(c2ccc(C(F)(F)F)cc2)CC1=O (centres unmarked) [1-56],–,≥ 50
CNC(Nc1ccc(F)cc1)=C1C(=O)CC(c2ccc(C(F)(F)F)cc2)CC1=O (centres unmarked) [1-57],–,≥ 50
O=C1CC(c2ccc(C(F)(F)F)cc2)CC(=O)C1=C(Nc1ccc(F)cc1)Nc1cnccn1 (centres unmarked) [1-64],–,≥ 50
O=C1CC(c2ccc(C(F)(F)F)cc2)CC(=O)C1=C(Nc1ccc(F)cc1)NC1CCOc2ccccc21 (centres unmarked) [1-69],–,≥ 50
CNC(Nc1ccc(F)nc1)=C1C(=O)CC(c2ccc(C(F)(F)F)cc2)C(c2ccccn2)C1=O (centres unmarked) [1-70],–,≥ 50
O=C1CC(c2ccc(C(F)(F)F)cc2)C(c2ccncc2)C(=O)C1=C(Nc1ccc(F)nc1)Nc1ccc(F)nc1 (centres unmarked) [1-72],–,≥ 50
O=C1CC(c2ccc(C(F)(F)F)cc2)C(c2ccccn2)C(=O)C1=C(Nc1ccc(F)cc1)Nc1ccc(F)nc1 (centres unmarked) [1-73],–,≥ 50
Cn1nc(-c2ccccc2)c(C2CC(=O)C(=C(Nc3ccc(F)cc3)Nc3ccc(F)nc3)C(=O)C2)c1Cl (centres unmarked) [1-79],–,≥ 50
Cn1nc(-c2ccccc2)c(C2CC(=O)C(=C(Nc3ccc(F)cc3)Nc3ccc(F)cc3)C(=O)C2)c1Cl (centres unmarked) [1-80],–,≥ 50
CNC(Nc1ccc(F)cc1)=C1C(=O)CC(c2c(-c3ccccc3)nn(C)c2Cl)CC1=O (centres unmarked) [1-82],–,≥ 50
C=CCNC(Nc1ccc(F)cc1)=C1C(=O)CC(c2cnc(C)o2)CC1=O (centres unmarked) [1-115],100,≥ 50
O=C1CC(c2ccc(C(F)(F)F)cc2)CC(=O)C1=C(Nc1ccc(F)nc1)Nc1cccnn1 (centres unmarked) [1-116],100,≥ 50
CNC(Nc1ccn(C)n1)=C1C(=O)CC(c2ccc(C(F)(F)F)cc2)CC1=O (centres unmarked) [1-117],–,≥ 50
COc1ncccc1NC(Nc1cccnc1OC)=C1C(=O)CC(c2ccc(C(F)(F)F)cc2)CC1=O (centres unmarked) [1-118],–,≥ 50
O=C1CC(c2ccc(C(F)(F)F)nc2)OC(=O)C1=C(Nc1ccnc(F)c1)Nc1ccnc(F)c1 (centres unmarked) [2-1],–,≥ 50
O=C1CC(c2ccc(C(F)(F)F)nc2)OC(=O)C1=C(Nc1ccc(F)cn1)Nc1ccc(F)cn1 (centres unmarked) [2-2],–,≥ 50
O=C1CC(c2ccc(C(F)(F)F)nc2)OC(=O)C1=C(Nc1ccc(F)nc1)Nc1ccc(F)nc1 (centres unmarked) [2-3],–,≥ 50
CCC1(c2ccc(C(F)(F)F)cc2)CN(C)C(=O)C(=C(NC)Nc2ccc(F)nc2)C1=O (centres unmarked) [3-8],–,≥ 50
CCC1(c2ccc(C(F)(F)F)cc2)CN(C)C(=O)C(=C(Nc2ccc(F)cc2)Nc2ccc(F)nc2)C1=O (centres unmarked) [3-9],–,≥ 50

Compound,mortality at 500 µg/mL [1] [%],inhibition at 100 µM [2] [%]
CCC1(c2ccc(C(F)(F)F)cc2)CN(C)C(=O)C(=C(Nc2ccc(F)nc2)Nc2ccc(F)nc2)C1=O (centres unmarked) [3-10],–,≥ 50
CNC(Nc1ccc(F)nc1)=C1C(=O)CC(c2cc(OC(F)F)n(C)n2)NC1=O (centres unmarked) [3-20],–,≥ 50
O=C1CC(c2nc(-c3ccc(F)cc3)cs2)NC(=O)C1=C(Nc1ccc(F)cc1)Nc1ccc(F)nc1 (centres unmarked) [3-24],100,≥ 50
O=C1CC(c2nc(-c3ccc(F)cc3)cs2)NC(=O)C1=C(Nc1ccc(F)nc1)Nc1ccc(F)nc1 (centres unmarked) [3-25],100,≥ 50
CC(C)(C)OC(=O)C1CC(=O)C(=C(Nc2ccc(F)cc2)Nc2ccc(F)nc2)C(=O)N1 (centres unmarked) [3-39],100,≥ 50
O=C1CC(c2cnc(Cl)c(Br)c2)NC(=O)C1=C(Nc1ccc(F)cc1)Nc1ccc(F)nc1 (centres unmarked) [3-43],–,≥ 50
CCCNC(Nc1ccc(F)cc1)=C1C(=O)CN(c2ccc(C#N)cn2)CC1=O [4-3],100,≥ 50
CNC(Nc1ccc(F)cc1)=C1C(=O)CCCN(c2ccc(C(F)(F)F)cc2)C1=O [5-2],–,≥ 50
CNC(Nc1ccc(F)cc1)=C1C(=O)CN(c2cnc(C#N)c(OC)c2)N(C(=O)OC)C1=O [6-21],–,≥ 50
CNC(Nc1ccc(F)cc1)=C1C(=O)CN(c2ccc(C#N)nc2)N(Cc2ccccc2)C1=O [6-27],–,≥ 50
CCOC(=O)N1C(=O)C(=C(NC)Nc2ccc(F)c(F)c2)C(=O)CN1c1ccc(C#N)c(F)c1 [6-29],–,≥ 50
CCOC(=O)N1C(=O)C(=C(NCc2cccc(F)c2)Nc2cccc(F)c2)C(=O)CN1c1ccc(C#N)c(Cl)c1 [6-31],–,≥ 50
CNC(Nc1ccc(F)cc1)=C1C(=O)CN(c2ccccc2)N(c2ccccc2)C1=O [6-35],–,≥ 50
CNC(Nc1ccc(F)cc1)=C1C(=O)CN(c2cnc(C#N)c(Cl)c2)N(C)C1=O [6-44],–,≥ 50
CSC(Nc1ccc(F)nc1)=C1C(=O)CC(c2ccc(Br)s2)NC1=O (centres unmarked) [9-33],–,≥ 50
CSC(Nc1ccc(F)nc1)=C1C(=O)CCN(c2ccc(C(F)(F)F)cc2)C1=O [9-34],–,≥ 50
CCC1(c2ccc(C(F)(F)F)nc2)CN(C)C(=O)C(=C(Nc2ccc(F)nc2)SC)C1=O (centres unmarked) [9-37],–,≥ 50
CCC1(c2ccc3ccccc3n2)CN(C)C(=O)C(=C(Nc2ccc(F)nc2)SC)C1=O (centres unmarked) [9-38],–,≥ 50
"O=C1CC(c2ccc(C(F)(F)F)cc2)CC(=O)C1=C(Nc1ccc(F)cc1)Nc1ccc(F)cc1 (centres unmarked) [compound No. 1-9, 2-(bis((4-fluorophenyl)amino)methylene)-5-(4-(trifluoromethyl)phenyl)cyclohexane-1,3-dione]",–,≥ 50
"CNC(Nc1ccc(F)cc1)=C1C(=O)CC(c2ccc(C(F)(F)F)cc2)N(C)C1=O (centres unmarked) [compound No. 3-1, 3-(((4-fluorophenyl)amino) (methylamino)methylene)-1-methyl-6-(4-(trifluoromethyl)phenyl)piperidine-2,4-dione]",–,≥ 50
CCC1(c2ccc(C(F)(F)F)nc2)CN(C)C(=O)C(=C(NC)Nc2ccc(F)cc2)C1=O (centres unmarked) [compound No. 3-2],–,≥ 50
CNC(Nc1ccc(F)cc1)=C1C(=O)CN(c2ccc(C#N)cn2)CC1=O [compound No. 4-1],100,≥ 50
CSC(Nc1ccc(F)nc1)=C1C(=O)CC(c2ccc(C(F)(F)F)cc2)CC1=O (centres unmarked) [compound No. 9-1],100,≥ 50
